Results: PMC9482650, “Quantitative fragmentomics allow affinity mapping of interactomes” (Nature Communications, 2022)
Ends that are not written are not given here. * marks the point of attachment. Biotin = O=C1N[C@H]2[C@H](CS[C@H]2CCCCC(=O)*)N1; ttds = NCCCOCCOCCOCCCNC(=O)CCC(=O)*

Legend:
[1] = test system: Jurkat cell extract preys; assay: PBM-AP-MS, PBM peptide baits; type: binding, human
Procedure: (§1) HEK293T and HeLa cells were authenticated and found 100% identity to ATCC cat. CRL-3216 and ATCC cat. CCL-2, respectively. Jurkat and HaCat cell lines were not authenticated (original source: ECACC and Deutsches Krebsforschungszentrum DKFZ, respectively). HeLa cells were grown in DMEM (1 g/L glucose, Gibco) medium completed with 5% FCS and 40 μg/mL gentamicin, diluted every 3rd/4th day 1/10. HaCat cells were grown in DMEM (1 g/L glucose, Gibco) medium completed with 10% FCS and 40 μg/mL gentamicin, diluted every 3rd/4th day 1/4. Jurkat cells were grown in RPMI (Gibco) medium completed with 10% FCS and 40 μg/mL gentamicin, diluted every 3rd/4th day 1/12. All cells were kept at 37 °C and 5% CO2. For proteomics analyses cells were seeded on T-175 flasks. After they reached confluency, adherent cells were washed with PBS once and collected by scraping with ice-cold lysis buffer (Hepes-KOH pH 7.5 50 mM, NaCl 150 mM, Triton X-100 1%, complete EDTA-free protease inhibitor cocktail 1×, EDTA 2 mM, TCEP 5 mM, glycerol 10%). Jurkat cells were collected by 1000 g × centrifugation, washed once with PBS, then collected by 1000 g × 5 min centrifugation again and lysed in ice-cold lysis buffer. Lysates were sonicated 4 × 20 s with 1 s long pulses on ice, then incubated rotating at 4 °C for 30 min. Lysates were centrifuged at 12,000 rpm 4 °C for 20 min and supernatant was kept for further analysis. Concentration determination was carried out by standard Bradford method (Bio-Rad Protein Assay Dye Reagent #5000006) using BSA (MP BIomedicals #160069) as control on a Bio-Rad SmartSpec 3000 spectrophotometer instrument.
(§2) For PBM-AP-MS experiments, 30 μl streptavidin resin was mixed with biotin or peptide at 50–60 μM concentration in 6–6.5 resin volume for 60 min to achieve resin saturation. For PDZ-AP-MS experiments, 30 μl streptavidin resin was mixed with biotinylated MBP or MBP-PDZ at 40-50 μM concentration in >1000× resin volume for 60 min to achieve resin saturation. After saturation, resins were washed a single time (ten resin volume, holdup buffer), and were depleted with biotin (1 mM biotin, 5–10 resin volume, 10 min). Finally, resins were washed two times. 0.5 ml 2 mg/ml cell lysate was added to the dry resin (1 mg total input) and were incubated at 4 °C for 2 h. Then, the beads were washed three times with 10 resin volume buffer containing: 50 mM TRIS pH 8.5, 150 mM NaCl, 1% TritonX-100, 10× complete EDTA-free protease inhibitor cocktail, 2 mM EDTA, 1 mM TCEP. Then, the beads were washed two times with ten resin volume buffer containing: 50 mM TRIS pH 8.5, 150 mM NaCl, 1 mM TCEP. Finally, captured protein was eluted from the resin in two steps and the eluted fractions were pooled. For each elution the beads were incubated for 30 min with three resin volume buffer containing: 20 mM TRIS pH8.5, 100 mM NaCl, 500 μM TCEP, 8 M Urea. Between each step, the beads were separated by mild centrifugation and the supernatant was removed by gentle pipetting.
(§3) The samples were precipitated with TCA 20% overnight at 4 °C and centrifuged at 14,000 rpm for 10 min at 4 °C. The protein pellets were washed twice with 1 mL cold acetone and air dried. The protein extracts were solubilized in urea 8 M, reduced with 5 mM TCEP for 30 min, and alkylated with 10 mM iodoacetamide for 30 min in the dark. Double digestion was performed at 37 °C with 500 ng endoproteinase Lys-C for 4 h, followed by fourfold dilution and an overnight digestion with 500 ng trypsin. Peptide mixtures were then desalted on C18 spin-column and dried on Speed-Vacuum.
(§4) Samples were analyzed using an Ultimate 3000 nano-RSLC (Thermo Scientific, San Jose California) coupled in line with a LTQ-Orbitrap ELITE mass spectrometer via a nano-electrospray ionization source (Thermo Scientific, San Jose California). […]

HaCat cell extract preys = assay: PBM-AP-MS, PBM peptide baits; type: binding, human
Procedure: as §1, §2, §3, §4

HPV18E6
Enrichment values compared to biotin controls ([1]; prey APBA1, PBM peptide bait): 5.1
Enrichment values compared to biotin controls ([1]; prey DLG4, PBM peptide bait): 3.2
Enrichment values compared to biotin controls ([1]; prey DVL2, PBM peptide bait): 1.0
Enrichment values compared to biotin controls ([1]; prey GOPC, PBM peptide bait): 15.5
Enrichment values compared to biotin controls ([1]; prey InaDl, PBM peptide bait): 0.8
Enrichment values compared to biotin controls ([1]; prey LAP2, PBM peptide bait): 2.3
Enrichment values compared to biotin controls ([1]; prey LNX2, PBM peptide bait): 1.0
Enrichment values compared to biotin controls ([1]; prey MAGI3, PBM peptide bait): 5.4
Enrichment values compared to biotin controls ([1]; prey MPP1, PBM peptide bait): 0.547
Enrichment values compared to biotin controls ([1]; prey MPP5, PBM peptide bait): 3.3
Enrichment values compared to biotin controls ([1]; prey MPP6, PBM peptide bait): 2.5
Enrichment values compared to biotin controls ([1]; prey MPP7, PBM peptide bait): 4.4
Enrichment values compared to biotin controls ([1]; prey MYO18A, PBM peptide bait): 0.4
Enrichment values compared to biotin controls ([1]; prey PDLIM2, PBM peptide bait): 1.5
Enrichment values compared to biotin controls ([1]; prey PDLIM5, PBM peptide bait): 0.8
Enrichment values compared to biotin controls ([1]; prey PDLIM7, PBM peptide bait): 1.1
Enrichment values compared to biotin controls ([1]; prey PDZD11, PBM peptide bait): 1.0
Enrichment values compared to biotin controls ([1]; prey PSMD9, PBM peptide bait): 0.8
Enrichment values compared to biotin controls ([1]; prey SIPA1L1, PBM peptide bait): 1.2
Enrichment values compared to biotin controls ([1]; prey SIPA1L2, PBM peptide bait): 1.1
Enrichment values compared to biotin controls ([1]; prey SNTB1, PBM peptide bait): 6.6
Enrichment values compared to biotin controls ([1]; prey SNTB2, PBM peptide bait): 1.1
Enrichment values compared to biotin controls ([1]; prey SNX27, PBM peptide bait): 16.6
Enrichment values compared to biotin controls ([1]; prey SYNJ2BP, PBM peptide bait): 14.2
Enrichment values compared to biotin controls ([1]; prey TX1B3, PBM peptide bait): 7.1
Enrichment values compared to biotin controls (HaCat cell extract preys; prey AHNAK2, PBM peptide bait): 0.8
Enrichment values compared to biotin controls (HaCat cell extract preys; prey AHNAK, PBM peptide bait): 1.4
Enrichment values compared to biotin controls (HaCat cell extract preys; prey DLG1, PBM peptide bait): 2.3
Enrichment values compared to biotin controls (HaCat cell extract preys; prey GORASP2, PBM peptide bait): 9.0
Enrichment values compared to biotin controls (HaCat cell extract preys; prey InaDl, PBM peptide bait): 8.0
Enrichment values compared to biotin controls (HaCat cell extract preys; prey LAP2, PBM peptide bait): 0.9
Enrichment values compared to biotin controls (HaCat cell extract preys; prey LIN7C, PBM peptide bait): 215.4
Enrichment values compared to biotin controls (HaCat cell extract preys; prey MAGI3, PBM peptide bait): 7.4
Enrichment values compared to biotin controls (HaCat cell extract preys; prey MPP5, PBM peptide bait): 11.3
Enrichment values compared to biotin controls (HaCat cell extract preys; prey MPP6, PBM peptide bait): 5.0
Enrichment values compared to biotin controls (HaCat cell extract preys; prey MPP7, PBM peptide bait): 48.3
Enrichment values compared to biotin controls (HaCat cell extract preys; prey NHERF2, PBM peptide bait): 1.8
Enrichment values compared to biotin controls (HaCat cell extract preys; prey NHERF, PBM peptide bait): 2.5
Enrichment values compared to biotin controls (HaCat cell extract preys; prey PDLIM1, PBM peptide bait): 3.2
Enrichment values compared to biotin controls (HaCat cell extract preys; prey PDLIM2, PBM peptide bait): 0.8
Enrichment values compared to biotin controls (HaCat cell extract preys; prey PDLIM4, PBM peptide bait): 1.0
Enrichment values compared to biotin controls (HaCat cell extract preys; prey PDLIM5, PBM peptide bait): 0.7
Enrichment values compared to biotin controls (HaCat cell extract preys; prey PDLIM7, PBM peptide bait): 0.5
Enrichment values compared to biotin controls (HaCat cell extract preys; prey PTPN3, PBM peptide bait): 1.7
Enrichment values compared to biotin controls (HaCat cell extract preys; prey SCRIB, PBM peptide bait): 0.6
Enrichment values compared to biotin controls (HaCat cell extract preys; prey SNTB2, PBM peptide bait): 15.4
Enrichment values compared to biotin controls (HaCat cell extract preys; prey SNX27, PBM peptide bait): 0.641
Enrichment values compared to biotin controls (HaCat cell extract preys; prey SYNJ2BP, PBM peptide bait): 58.4
Enrichment values compared to biotin controls (HaCat cell extract preys; prey TJP1, PBM peptide bait): 8.8
Enrichment values compared to biotin controls (HaCat cell extract preys; prey TJP2, PBM peptide bait): 1.8
Enrichment values compared to biotin controls (HaCat cell extract preys; prey TX1B3, PBM peptide bait): 1.6

HPV30E6 ({Biotin-ttds}-RHTTSTETAV)
Enrichment values compared to biotin controls ([1]; prey APBA1, PBM peptide bait): 2.1
Enrichment values compared to biotin controls ([1]; prey DLG4, PBM peptide bait): 4.1
Enrichment values compared to biotin controls ([1]; prey DVL2, PBM peptide bait): 0.9
Enrichment values compared to biotin controls ([1]; prey GOPC, PBM peptide bait): 1.2
Enrichment values compared to biotin controls ([1]; prey InaDl, PBM peptide bait): 0.6
Enrichment values compared to biotin controls ([1]; prey LAP2, PBM peptide bait): 2.7
Enrichment values compared to biotin controls ([1]; prey LNX2, PBM peptide bait): 0.543
Enrichment values compared to biotin controls ([1]; prey MAGI3, PBM peptide bait): 2.1
Enrichment values compared to biotin controls ([1]; prey MPP1, PBM peptide bait): 1.4
Enrichment values compared to biotin controls ([1]; prey MPP5, PBM peptide bait): 1.1
Enrichment values compared to biotin controls ([1]; prey MPP6, PBM peptide bait): 1.2
Enrichment values compared to biotin controls ([1]; prey MPP7, PBM peptide bait): 2.8
Enrichment values compared to biotin controls ([1]; prey MYO18A, PBM peptide bait): 1.1
Enrichment values compared to biotin controls ([1]; prey PDLIM2, PBM peptide bait): 1.5
Enrichment values compared to biotin controls ([1]; prey PDLIM5, PBM peptide bait): 0.9
Enrichment values compared to biotin controls ([1]; prey PDLIM7, PBM peptide bait): 1.1
Enrichment values compared to biotin controls ([1]; prey PDZD11, PBM peptide bait): 3.0
Enrichment values compared to biotin controls ([1]; prey PSMD9, PBM peptide bait): 0.7
Enrichment values compared to biotin controls ([1]; prey SIPA1L1, PBM peptide bait): 1.1
Enrichment values compared to biotin controls ([1]; prey SIPA1L2, PBM peptide bait): 0.65
Enrichment values compared to biotin controls ([1]; prey SNTB1, PBM peptide bait): 3.6
Enrichment values compared to biotin controls ([1]; prey SNTB2, PBM peptide bait): 1.0
Enrichment values compared to biotin controls ([1]; prey SNX27, PBM peptide bait): 14.6
Enrichment values compared to biotin controls ([1]; prey SYNJ2BP, PBM peptide bait): 1.5
Enrichment values compared to biotin controls ([1]; prey TX1B3, PBM peptide bait): 1.2
Enrichment values compared to biotin controls (HaCat cell extract preys; prey AHNAK2, PBM peptide bait): 1.2
Enrichment values compared to biotin controls (HaCat cell extract preys; prey AHNAK, PBM peptide bait): 1.4
Enrichment values compared to biotin controls (HaCat cell extract preys; prey DLG1, PBM peptide bait): 3.4
Enrichment values compared to biotin controls (HaCat cell extract preys; prey GORASP2, PBM peptide bait): 0.566
Enrichment values compared to biotin controls (HaCat cell extract preys; prey InaDl, PBM peptide bait): 0.8
Enrichment values compared to biotin controls (HaCat cell extract preys; prey LAP2, PBM peptide bait): 1.6
Enrichment values compared to biotin controls (HaCat cell extract preys; prey LIN7C, PBM peptide bait): 207.8
Enrichment values compared to biotin controls (HaCat cell extract preys; prey MAGI3, PBM peptide bait): 2.1
Enrichment values compared to biotin controls (HaCat cell extract preys; prey MPP5, PBM peptide bait): 1.9
Enrichment values compared to biotin controls (HaCat cell extract preys; prey MPP6, PBM peptide bait): 1.8
Enrichment values compared to biotin controls (HaCat cell extract preys; prey MPP7, PBM peptide bait): 42.8
Enrichment values compared to biotin controls (HaCat cell extract preys; prey NHERF2, PBM peptide bait): 1.1
Enrichment values compared to biotin controls (HaCat cell extract preys; prey NHERF, PBM peptide bait): 2.3
Enrichment values compared to biotin controls (HaCat cell extract preys; prey PDLIM1, PBM peptide bait): 2.3
Enrichment values compared to biotin controls (HaCat cell extract preys; prey PDLIM2, PBM peptide bait): 1.2
Enrichment values compared to biotin controls (HaCat cell extract preys; prey PDLIM4, PBM peptide bait): 1.3
Enrichment values compared to biotin controls (HaCat cell extract preys; prey PDLIM5, PBM peptide bait): 0.9
Enrichment values compared to biotin controls (HaCat cell extract preys; prey PDLIM7, PBM peptide bait): 0.658
Enrichment values compared to biotin controls (HaCat cell extract preys; prey PTPN3, PBM peptide bait): 1.3
Enrichment values compared to biotin controls (HaCat cell extract preys; prey SCRIB, PBM peptide bait): 0.8
Enrichment values compared to biotin controls (HaCat cell extract preys; prey SNTB2, PBM peptide bait): 9.0
Enrichment values compared to biotin controls (HaCat cell extract preys; prey SNX27, PBM peptide bait): 0.9
Enrichment values compared to biotin controls (HaCat cell extract preys; prey SYNJ2BP, PBM peptide bait): 21.9
Fold changes HaCat, SYNJ2BP (HaCat cell extract preys; prey SYNJ2BP, PBM peptide bait): 21.9
Enrichment values compared to biotin controls (HaCat cell extract preys; prey TJP1, PBM peptide bait): 3.8
Enrichment values compared to biotin controls (HaCat cell extract preys; prey TJP2, PBM peptide bait): 0.9
Enrichment values compared to biotin controls (HaCat cell extract preys; prey TX1B3, PBM peptide bait): 0.9
